Data from patent US6242428A, “Nucleoside analogs and uses in treating Plasmodium falciparum infection” (Unisearch Limited, priority 1998, dated 2001).
pIC50: −log10 of the molar value. “Also recorded” adds a separate entry of the source. Read-outs that look alike come from different tables or passages of the source.

How the values were obtained:
[1] = Solubility remark in the in vitro testing; conditions: Tables 1 and 6
[2] = tested on: human prostate phosphotransferase; conditions: cited from earlier work
[3] = tested on: P. falciparum strain D6 (chloroquin non-resistant); assay: U.S. Army Antimalarial Test Program in vitro screen, strain D6; type: cell-based, Plasmodium falciparum; conditions: 15 dimers, D6 and W2 stated together
Source text: (§1) Fifteen L-nucleoside dimers (L-101, L-103, L-103A, L-107, L-110, L-111, L-112, L-114, L-117, L-120, L-122, L-124, L-125, L-133 & L-138) from Lipitek's library were submitted for in vitro screen to the U.S. Army Antimalarial Test Program (for the structures of the compounds, see FIG. 7). The compounds have been tested for their activity against two P. falciparum strains: D6 (chloroquin non-resistant) and W2 (chloroquin resistant).

[4] = tested on: P. falciparum infected erythrocytes (trophozoites); type: in vitro ADME, human erythrocytes infected with Plasmodium falciparum
Procedure: (§2) The metabolism of the L-nucleoside conjugates was studied by HPLC analysis. The primary aim was to determine their ability to be catabolized by parasite purine salvage enzymes. Some effect on the purine metabolic pools was also observed.
(§3) For each HPLC determination 200 μL of packed cells of 80-90% trophozoite infected cells were used. These were isolated from in vitro cultures by synchronization of the parasites in in vitro cultures using sterile D-sorbitol (L. Lambros and J. P. Vanderberg, Parasitol. 65, 418-420 (1979)) followed by separation of the trophozoites from non infected erythrocytes by Percoll gradients as described previously (A. M. Gero, H. V. Scott, W. J. O'Sullivan and R. I. Christopherson, Mol. Biochem. Parasitol. 34, 87-89 (1989)). Trophozoites were incubated at 37° C. for 2 hours with each compound to be tested. Compounds were incubated with both whole infected cells as whole and lyzed uninfected normal erythrocytes to determine:
b) the metabolic effect within the cell (was the compound metabolized);
(§4) The metabolism of nucleosides with potential chemotherapeutic activity was assessed by the analysis of cytoplasmic samples by reverse phase ion-pair high performance liquid chromatography (R. S. Toguzov, Y. V. Tikhonov, A. M. Pimenov, V. Prokudin, Journal of Chromatography, I. Biomedical Appl. 434, 447-453 (1988)). Nucleotides, nucleosides and bases were separated by this HPLC method.
(§5) These compounds were chosen for the identification of possible metabolites. In this experiment the compounds were incubated with both whole infected cells, and with whole and lysed uninfected cells, followed by the separation of unreacted compound and HPLC analysis.

[5] = tested on: P. falciparum infected erythrocytes (trophozoites); type: in vitro ADME, human erythrocytes infected with Plasmodium falciparum; remark: listed apart in the source
Procedure: as §2, §3
a) entry to the cell (whether they were transported);
Drug incubation was terminated by centrifugation through silicon oil using the method of Upston and Gero (J. M. Upston and A. M. Gero, Biochem. Biophys. Acta. 1236, 249-258 (1995)). This procedure separated intact trophozoites from extracellular non-transported drug solution.
as §4
It has been established that transport and uptake in parasite invaded cells is different from that of normal blood erythrocytes (A. M. Gero & A. M. Wood, In: Pyrine & Pyrimidine Methabolism in Man VII, Part A. (R. A. Harkness et al., Eds) Plenum Press, NY, 169-172 (1991)). Invasion by the malaria parasite comprises the cell membrane, allowing penetration of unnatural substances of various size and shape, whereas normal cells are very selective in uptake. It was shown that L-nucleosides and their derivatives easily penetrate invaded cells, while they have a very slow rate of uptake into normal cells, if they enter at all. In order to obtain preliminary data on transport, uptake and metabolism, the HPLC method was used to analyze the following 10 Lipitek compounds: L-101, L-103, L-109, L-111, L-117, L-133, L-138, GCl 1007, GCl 1027, GCl 1069.
as §5

[6] = tested on: P. falciparum; assay: In vitro toxicity against P. falciparum in culture (radiolabelled hypoxanthine incorporation / lactate dehydrogenase assay); type: cell-based, Plasmodium falciparum, FCQ27; conditions: for toxicity against P. falciparum, in words: statement in the transport and metabolism study
Procedure: P. falciparum, FCQ27, was maintained in culture using the techniques described by Trager & Jensen (W. Traqer and J. B. Jensen, Science, 193 673-675 (1976)). Cultures containing 2% hematocrit suspensions of parasitized human type O^+ erythrocytes in RPMI 1640 medium, supplemented with 25 mM HEPES-KOH, pH 7.2, 25 mM NaHCO3 and 10% human type O^+ serum (v/v) are maintained in modular incubator chambers at 37° C. in a gas mixture of 5% O2, 5% CO2 and 90% N2. The isolate of P. falciparum used in these experiments was FCQ27, routinely maintained in synchronized or asynchronous in vitro cultures at low hematocrit.
The potential toxicity of nucleoside analogues against P. falciparum in culture was tested in microtitre plates over the range of drug concentrations for 24 hours. The procedures for monitoring parasite viability is well established (A. M. Gero, H. V. Scott, W. J. O'Sullivan and R. I. Christopherson, Mol. Biochem. Parasitol. 34, 87-89 (1989)) and is based on radiolabelled hypoxanthine or isoleucine incorporation. The incorporation of [G-^3 H]hypoxanthine into the nucleic acids of P. falciparum was used to assess the viability of the parasite in vitro. Microculture plates were prepared with each well containing 225 μl of a 2% hematocrit culture of asynchronous parasited erythrocytes (1% parasitized cells). Each plate, containing varying concentrations of the drug to be studied (up to 200 μM final concentration for initial screen), was incubated for 24 h at 37° C. in a gas mixture of 5% O2, 5% CO2 and 90% N2, at which point [G-^3 H] hypoxanthine was added to each well and the incubation continued under identical conditions for a further 18-20 h. The control infected cells (i.e. without drug), routinely reached a parasitemia of 6-8% before harvesting. Expediency was aided by 96-well plate counter using lactate dehydrogenase for the drug susceptibility assay (L. K. Basco, F. Marguet, M. T. Makler and J. Lebbras, Exp. Parasitol. 80, 260-271 (1995); M. T. Makler and D. J. Hinrichs; Am. J. Trop. Med. Hyg. 48, 205-210 (1993)). This assay gave the identical results to the hypoxanthine technique. In addition, for each experiment, microscopic counting of Giemsa stained thin slides was used as a control.
The biological screen involved evaluation of the compounds against the protozoan P. falciparum in in vitro culture. The range of drug concentrations was used independently by two assays. One, radiolabelled hypoxanthine incorporation into the nucleic acid of P. falciparum, and the other, more expedient assay, a 96-well plate susceptibility assay using lactate dehydrogenase. Both assays gave identical results. In addition, microscopic counting of Giemsa stained thin slides was used as a control. Examples of experimental curves are attached as Appendix 2. The biological tests were done at several concentrations. The highest concentration was 200 μM, the compounds were considered active at concentrations less than 40 μM.

[7] = tested on: P. falciparum strain W2 (chloroquin resistant); assay: U.S. Army Antimalarial Test Program in vitro screen, strain W2; type: cell-based, Plasmodium falciparum; conditions: 15 dimers, D6 and W2 stated together
Source text: as §1

[8] = tested on: normal erythrocytes and other cell types; conditions: cited from earlier work
[9] = tested on: erythrocyte infected with P. falciparum; conditions: cited from earlier work
[10] = Plasmodium falciparum, 24 h, Table 1, 24 h drug exposure, up to 200 μM, read-out: IC50
[11] = Plasmodium falciparum, Table 2, FUdR linkage position 5', read-out: IC50
[12] = Plasmodium falciparum, Table 3, β-L configuration of the L-nucleoside, read-out: IC50
[13] = Plasmodium falciparum, Table 4, Phosphate "bridge" O=P--O, read-out: IC50

Molecule	activity ranking in words, strain D6 [3]	entry to the infected cell [5]	In vitro activity against P. falciparum, in words [6]	pIC50 [6, 10]	pIC50 [6, 11]	toxicity against P. falciparum, in words [6]	activity ranking in words, strain W2 [7]	other results
α-L-FUdR 3'-5'SATE [B07]								Solubility (printed in the IC50/ID50 column) [1]: Solubility problem
O=c1ccn([C@H]2O[C@@H](CO)[C@H](O)[C@@H]2O)c(=O)[nH]1 [β-L-uridine]								phosphorylation at the 5'-position [2]: not phosphorylated at the 5'-position
Nc1ncnc2c1ncn2[C@@H]1C[C@@H](OP(=O)(O)OC[C@H]2O[C@@H](n3cc(F)c(=O)[nH]c3=O)C[C@@H]2O)[C@H](CO)O1 [L-138, β-L-dA, β-D-FUdR]	most active	entered the infected cells	most active	5.30	5.30	toxic against P. falciparum	most active	metabolism by the infected cells [4]: metabolized by the infected cells; pIC50 [6, 12]: 5.30; pIC50 [6, 13]: 5.30; pIC50 ([6]; Plasmodium falciparum, Table 4, Phosphorothioate "bridge" S=P--O, read-out: IC50): 4.00
O=c1ccn([C@@H]2C[C@@H](OP(=O)(O)OC[C@H]3O[C@@H](n4cc(F)c(=O)[nH]c4=O)C[C@@H]3O)[C@H](CO)O2)c(=O)[nH]1 [L-117]	most active	entered the infected cells		4.46		toxic against P. falciparum	most active	pIC50 [6, 13]: 4.46
β-L-dG, β-D-FUdR [L-133]	most active	entered the infected cells	most active			toxic against P. falciparum	most active	metabolism by the infected cells [4]: metabolized by the infected cells; pIC50 ([6]; Table 1, 24 h drug exposure, up to 200 μM, read-out: IC50): 4.85; pIC50 ([6]; Table 2, FUdR linkage position 5', read-out: IC50): 4.85
Nc1ccn([C@H]2C[C@@H](OP(=O)(O)OC[C@H]3O[C@@H](n4cc(F)c(=O)[nH]c4=O)C[C@@H]3O)[C@H](CO)O2)c(=O)n1 [L-111, 3'-O-(β-D-5-fluoro-2'-deoxyuridinyl)-α-L-2'-deoxycytidine]		entered the infected cells	most active; also recorded: no obvious difference in the activity	4.42	4.42	toxic against P. falciparum		pIC50 ([6]; Plasmodium falciparum, Table 3, α-L configuration of the L-nucleoside, read-out: IC50): 4.42
O=c1[nH]c(=O)n([C@H]2C[C@H](OP(=O)(O)OC[C@H]3O[C@@H](n4cc(F)c(=O)[nH]c4=O)C[C@@H]3O)[C@@H](CO)O2)cc1F [L-101, [β-D]2 -FUdR]	most active	entered the infected cells	most active	4.82	4.82	toxic against P. falciparum	most active	metabolism by the infected cells [4]: metabolized by the infected cells; pIC50 [6, 13]: 4.82
β-L-FUdR 3'-5'SATE [B05]								Solubility (printed in the IC50/ID50 column) [1]: Solubility problem
O=c1[nH]c(=O)n([C@@H]2OC[C@H](O)[C@@H]2O)cc1F [GCI 1007, α-L-erythrofuranosyl-5-fluorouracil]		entered the infected cells		< 3.70		toxic against P. falciparum		
O=c1[nH]c(=O)n([C@@H]2C[C@@H](OP(=O)(O)OC[C@H]3O[C@@H](n4cc(F)c(=O)[nH]c4=O)C[C@@H]3O)[C@H](CO)O2)cc1F [L-110, 3'-O-(β-D-5-fluoro-2'-deoxyuridinyl)-β-L-5-fluoro-2'-deoxyuridine]	most active			4.70	4.70		most active	pIC50 [6, 12]: 4.70
Nc1ncnc2c1ncn2[C@H]1O[C@@H](CO)[C@H](O)[C@@H]1O [GCI 1032, β-L-adenosine]								permeability/uptake of normal erythrocytes and other cells [8]: completely impermeable; transport into infected erythrocyte [9]: selectively transported into an erythrocyte infected with P. falciparum; pIC50 ([6]; Plasmodium falciparum, 24 h): < 3.70
O=c1[nH]c(=O)n([C@@H]2C[C@@H](O)[C@H](COP(=O)(O)O[C@@H]3C[C@@H](n4cc(F)c(=O)[nH]c4=O)O[C@H]3CO)O2)cc1F [L-109, 3'-O-(β-L-5-fluoro-2'-deoxyuridinyl)-β-L-5-fluoro-2'-deoxyuridine]		could not enter the infected cell	did not exhibit any activity	< 3.70		not toxic		
O=c1[nH]c(=O)n([C@H]2C[C@@H](O)[C@H](CO)O2)cc1F [GCI 1027, 2'-deoxy-α-L-5-fluorouridine]		entered the infected cells	no activity	< 3.70		toxic against P. falciparum		pIC50 ([6]; Plasmodium falciparum, Erythrocyte, 24 h, Table 6, SATE derivatives of FUdR, read-out: ID50 (the source's name)): < 3.70
